Results from patent publication US9539284B2 (GLOBOASIA, LLC, priority 2006, dated 2017).
Several values for one entry are separate records, joined by “and”; a condition that tells them apart may be missing. Equal entries are not always repeated. Where two headings read alike, the source gives them in different places.

What was measured:
[1] = Fe3+ content per 500 mg compound (selection criterion 3); type: physicochemical
Description: 3. Appropriate equivalence of ferric ion per gram of compound. The potential ferric compound should contain enough ferric ions to effectively bind with dietary phosphate.

[2] = cited from earlier work
[3] = Harvey et al. 1998; cited from earlier work

Molecule | Fe^3+ content per 500 mg compound ([1]; per 500 mg compound, unit mg) | pKa of anionic group [2] | further results
O=C([O-])CN(CCN(CC(=O)[O-])CC(=O)O)CC(=O)[O-].[Fe+3] [ferric EDTA] | 81 mg |  | 
O=C([O-])CN(CCO)CCN(CC(=O)[O-])CC(=O)[O-].[Fe+3] [ferric HEDTA] | 85 mg |  | 
CC(=O)[O-].CC(=O)[O-].CC(=O)[O-].[Fe+3] [ferric acetate] |  |  | Fe^3+ content per 500 mg compound [1]: 120 mg
CC(=O)/C=C(/C)[O-].CC(=O)/C=C(/C)[O-].CC(=O)/C=C(/C)[O-].[Fe+3] [ferric acetylacetonate] | 78 mg |  | 
O=C([O-])[O-].O=C([O-])[O-].O=C([O-])[O-].[Fe+3].[Fe+3] [ferric carbonate] |  | 10.3 | Fe^3+ content per 500 mg compound [1]: 191 mg
C[N+](C)(C)CCO.O=C([O-])CC(O)(CC(=O)[O-])C(=O)[O-].[Fe+3] [ferric choline citrate] |  |  | Fe^3+ content per 500 mg compound [1]: 79 mg
O=C[O-].O=C[O-].O=C[O-].[Fe+3] [ferric formate] |  | pKa = 3.75 | Fe^3+ content per 500 mg compound [1]: 147 mg
O=C([O-])/C=C/C(=O)[O-].O=C([O-])/C=C/C(=O)[O-].O=C([O-])/C=C/C(=O)[O-].[Fe+3].[Fe+3] [ferric fumarate] | 125 mg | pKa = 3.02 | 
O=C([O-])CC(O)C(=O)[O-].O=C([O-])CC(O)C(=O)[O-].O=C([O-])CC(O)C(=O)[O-].[Fe+3].[Fe+3] (stereo not drawn) [ferric malate] | 110 mg | pKa = 3.4 | 
CCCCC(CC)C(=O)[O-].CCCCC(CC)C(=O)[O-].CCCCC(CC)C(=O)[O-].[Fe+3] (stereo not drawn) [ferric octoate] | 58 mg |  | 
O=C([O-])C(=O)[O-].O=C([O-])C(=O)[O-].O=C([O-])C(=O)[O-].[Fe+3].[Fe+3] [ferric oxalate] | 142 mg | pKa = 1.25 | 
NCC(=O)[O-].NCC(=O)[O-].NCC(=O)[O-].[Fe+3] [ferric triglycinate] |  | pKa = 2.35 | Fe^3+ content per 500 mg compound [1]: 100 mg
Cc1occc(=O)c1[O-].Cc1occc(=O)c1[O-].Cc1occc(=O)c1[O-].[Fe+3] [ferric trimaltol] | 65 mg |  | correcting iron deficiency [3]: capable of correcting iron deficiency
ferric ascorbate | 121 mg | pKa = 4.04 | 
ferric aspartate | 62 mg | pKa = 1.99 | 
ferric citrate [reference compound] | 114 mg | pKa = 6.4 | 
ferric gluconate | 44 mg |  | 
ferric histidinate | 54 mg |  | 
ferric oleate | 31 mg |  | 
ferric picolinate | 66 mg |  | 
ferric tartrate | 56 mg and 100 mg |  | pKa of anionic group, pKa1 ([2]; first pKa): pKa1 = 2.98; pKa of anionic group, pKa2 ([2]; second pKa): pKa2 = 4.34
